Key:
Type in all cases: cell-based
[1] = system: SNAP-tagged human GIPR; experiment: High-content microscopy recycling, SNAP-GIPR; conditions: 100 nM, 60 min recycling, 37 °C, n = 5
Description: The assay was performed as previously described ([21]). The INS-1 832/3 SNAP-GLP-1R or SNAP-GIPR cells were seeded into poly-D-lysine-coated, black 96-well plates. On the day of the assay, labeling was performed with BG-S-S-649 (1 µM), a surface-labeling SNAP-tag probe that can be released on application of reducing agents such as Mesna. After washing, treatments were applied for 30 minutes at 37 °C in complete medium. Ligand was removed and cells washed with cold HBSS and placed on ice for subsequent steps. Mesna (100 mM in alkaline TNE buffer, pH 8.6) or alkaline TNE buffer without Mesna was applied for 5 minutes, and then washed with HBSS. Cells were imaged by widefield microscopy, with both epifluorescence and transmitted phase contrast images acquired. On imaging completion, HBSS was removed and replaced with fresh complete medium, and receptor was allowed to recycle for 60 minutes at 37 °C, followed by a second Mesna application to remove any receptor that had recycled to the plasma membrane, with the plate re-imaged as above. Internalized receptor at each time point was determined from cell-containing regions as determined from the phase contrast image using […] ([22]) and used to determine internalization and recycling parameters as previously described ([21]). […]

[2] = system: SNAP-tagged human GIPR; experiment: Colocalization with SNX27-GFP, SNAP-GIPR; conditions: 3 hours stimulation with 100 nM
[3] = system: SNAP-tagged human GIPR; experiment: Colocalization with Rab5-Venus, SNAP-GIPR; conditions: 100 nM GIP
Text: To determine the intracellular destination of internalized GLP-1Rs/GIPRs more precisely, we performed concentration response bystander NanoBRET assays using C-terminal NanoLuc-fused SNAP-tagged GLP-1R vs GIPR and either KRAS-Venus (plasma membrane) or Rab5-Venus (early endosome) co-expressed transiently in INS-1 832/3 cells (Fig. 2).

[4] = system: GIPR-SmBiT; experiment: Mini-G protein/β-arrestin 2 recruitment NanoBiT, GIPR; conditions: 100 nM GIP, n = 5
Text: Here the SmBiT was cloned in frame at the C-terminus of the GLP-1R and the GIPR by substitution of the Tango sequence on FLAG-tagged GLP-1R-Tango or GIPR-Tango (a gift from Prof. Bryan Roth, University of North Carolina, USA; Addgene plasmids #66291 and #66294), respectively. Mini-Gs, mini-Gq, and mini-Gi plasmids, tagged at the N-terminus with LgBiT, were a gift from Prof. Nevin Lambert, Medical College of Georgia, USA. For β-arrestin 2 recruitment assays, β-arrestin 2 fused at the N-terminus to LgBiT (LgBiT-β-arrestin 2; Promega, plasmid no. CS1603B118) was chosen as it has previously been used successfully with other class B GPCRs. […]
All NanoBiT and NanoBRET readings were obtained in a Flexstation 3 plate reader. […] Readings were normalized to well baseline and then to average vehicle-induced signal to establish the agonist-induced effect. AUCs from response curves were calculated for each agonist concentration and fitted to four-parameter curves using Prism 9 (GraphPad).
Figure 5. […] (A) Kinetics of Gαs, Gαq, Gαi, and β-arrestin 2 recruitment to the GLP-1R assessed by NanoBiT complementation assay in INS-1 832/3 GLP-1R KO cells transiently expressing GLP-1R-SmBiT and the corresponding mini-G protein subtype or β-arrestin 2. […]

GIP(1-42) was tested, and the “Recycling rate of GIPR compared with GLP-1R” value [1] was “significantly increased recycling rates”, the “SNAP-GIPR colocalization with SNX27” value [2] was “sustained” and the “Localization of the fraction of internalized GIPRs” value [3] was “also localized to Rab5-Venus-positive endosomes”. The SNAP-GIPR localization [3] was “a sizable amount of SNAP-GIPR was still present at the plasma membrane”, the “GIPR responses for all readouts (Gαs, Gαq, Gαi, β-arrestin 2) compared with GLP-1R” value ([4]; 30 minutes) was “markedly reduced for all readouts” and the “Gαs recruitment to the GIPR” value [4] was “almost as low as those obtained for Gαi”.
